Each structure is given as a SMILES string. Entries after “also recorded” stand apart in the source; their conditions may differ.

The assay deals with male CD-1 mice. The assay is described as follows: Learned helplessness (LH). In kind it is in vivo. The note with it: single injection. From the text:
Male CD-1 mice (8-10 weeks old, Charles River Laboratories, Mass., USA) were housed in groups of four-five per cage with a constant 12-hour light/dark cycle (lights on/off at 07:00/19:00). Food and water were available ad libitum. Mice acclimatized to the new environment for seven days prior to the start of the experiments. For the whole-cell NMDA current electrophysiological recordings, male Sprague-Dawley rats (housed three per cage; Charles River, Wilmington, Mass.) were used. EPSC recording were done from rats at postnatal day 24-25. All experimental procedures were approved by the University of Maryland, Baltimore Animal Care and Use Committee and were conducted in full accordance with the National Institutes of Health Guide for the Care and Use of Laboratory Animals.
The LH paradigm consisted of three different phases, i.e., inescapable shock training, LH screening, and the LH test. For the inescapable shock portion of the test (Day 1), the animals were placed in one side of two-chambered shuttle boxes (34 cm height×37 cm width×18 cm depth; Coulbourn Instruments, PA, USA), with the door between the chambers closed. Following a five-min adaptation period, 120 inescapable foot-shocks (0.45 mA, 15 sec duration, randomized average inter-shock interval of 45 sec) were delivered through the grid floor. During the screening session (Day 2), the mice were placed in one of the two chambers of the apparatus for 5 min. A shock (0.45 mA) was then delivered, and the door between the two chambers was raised simultaneously. Crossing over into the second chamber terminated the shock. […] A total of 30 screening trials of escapable shocks were presented to each mouse with an average of 30 sec delay between each trial. Mice that developed helplessness behavior (>5 escape failures during the last 10 screening shocks) were administered with the respective drug 24 hours following screening (Day 3). During the LH test phase (Day 4), the animals were placed in the shuttle boxes and, after a 5-min adaptation period, a 0.45 mA shock was delivered concomitantly with door opening for the first five trials, followed by a 2-sec delay for the next 40 trials. Crossing over to the second chamber terminated the shock. […] A total of 45 trials of escapable shock were presented to each mouse with 30 sec inter-trial intervals. The number of escape failures was recorded for each mouse.

Take `N[C@@]1(c2ccccc2Cl)CCC[C@@H](O)C1=O` [(2R,6R)-HNK, (2R,6R)-2-amino-2-(2-chlorophenyl)-6-hydroxycyclohexanone]: the “doses with antidepressant-like effects in learned helplessness” value was in the range of 5 to 75 mg/kg. For the same compound, under “test 24 hours after administration”, the “antidepressant-like effect in learned helplessness (escape failures)” value is “greater potency and longer-lasting antidepressant-like effects; also recorded: dose-dependent antidepressant-like responses; also recorded: more potent antidepressant effects; also recorded: dose-dependent antidepressant action”.

The values above are taken from patent US20190083420A1, “METHODS OF USING (2R, 6R)-HYDROXYN[…] (2S, 6S)-HYDROXYN[…] THE TREATMENT OF DEPRESSION, ANXIETY, ANHEDONIA, FATIGUE, SUICIDAL IDEATION, AND POST TRAUMATIC STRESS DISORDERS” (The Uinited States of America, as represented by the …, priority 2016, published 2019).
